Assay: Stability of dual anthelmintic solvent system, accelerated aging at 40° C. for 12 months
Format: physicochemical
Settings: for Concentration after 6 months / Concentration after 12 months: active in solvent system of Example 4, 40° C. accelerated aging; for Initial concentration: active in solvent system of Example 4, initial

Compound	Concentration after 6 months [µg/mL]	Concentration after 12 months [µg/mL]	Initial concentration [g/L]
c1ccc([C@H]2CN3CCSC3=N2)cc1 [Levamisole]	25450	24100	27.15
Eprinomectin	15800	14600	16.5
